One assay deals with P. aeruginosa PAO1. Kind of assay: Antibiotic resistance buildup, daily MIC over 14 consecutive days. It is filed as cell-based, Pseudomonas aeruginosa. The settings on record: coadministration of P[5]a with the antibiotic, 14-day period. An excerpt: Area below the yellow line means that the bacterium is classified as susceptible to the antibiotic. The area in between yellow and red means that the bacterium is intermediate susceptible to the antibiotic. The area above the red line means that the bacterium is classified as resistant to the antibiotic (According to the “Performance Standards for Antimicrobial Susceptibility Testing”, which is maintained by the Clinical and Laboratory Standards Institute).
Because of this, a combined administration of P[5]a with a variety of antibiotics was tested. MIC values with two different antibiotics, meropenem and cefepime (FIG. 2) were tested, over a period of 14 consecutive days (which more than surpasses the length of normal treatments, 7-10 days), when administered together with and without 2.5 mM P[5]a.
In this experiment, the minimum inhibitory concentration MIC was analyzed daily for 14 consecutive days, and the highest MIC values (so the highest concentration of antibiotic where the bacteria still grew) was used for the next day. This way, the buildup of resistance over time can be monitored. In FIG. 2, the area below the yellow line means that the bacterium is classified as susceptible to the antibiotic, the area in between yellow and red means that the bacterium is intermediate susceptible to the antibiotic and the area above the red line means that the bacterium is classified as resistant to the antibiotic (According to the “Performance Standards for Antimicrobial Susceptibility Testing”, which is maintained by the Clinical and Laboratory Standards Institute).
The effect of P[5]a on encountering resistance development in a pathogenic Gram-negative bacterium, Pserudomonas aeruginosa, strain PA01 was studied over 14-day period. The development of resistance over 14 continuous days by the pathogen PAO1 towards treatment with four clinically relevant antibiotics (meropenem, cefepime, aztreonam and tobramycin) and P[5]a was compared. […] In all antibiotic treatments, reduced susceptibility was observed from day 4 onwards, with complete resistance to all treatments after 12 days.
The effect of P[5]a on the enhancement of the penetration of coadministered antibiotics having intracellular targets (aztreonam, cefepime, meropenem and tobramycin) was studied over 14-day period in a pathogenic Gram-negative bacterium, Pserudomonas aeruginosa, strain PA01. […] MIC values were categorized in three groups according to the Clinical and Laboratory Standards Institute: susceptible, intermediate susceptible and resistant.

The test system of assay [1] is MDR-Acinetobacter baumannii 5542. The assay is described as follows: Resistance profile of strain (Table 3). Format: cell-based. The settings on record: strain 5542 A. baumannii.
Assay [2] concerns Pseudomonas aeruginosa 5539. The assay is described as follows: Resistance profile of strain (Table 3). Format: cell-based. The conditions noted are these: strain 5539.
The nature of assay [3]: Dye displacement (competitive-binding) assay between P[5]a host and HSL guests. The settings on record: HSL guest titrated against P[5]a host with bound fluorescent dye. The text has this:
The addition of a HSL “[…]” displaces the […] from the cavity again, resulting in a shift back to 468 nm.
To measure the binding affinity between the macrocyclic “Host” P[5]a and different homoserine lactone “guests” a competitive-binding assay was used. In this case, a “guest” HSL solution is titrated against a solution of the P[5]a “host”, which has a fluorescent dye bound in its cavity, […], which has a known affinity for the P[5]a. The ratio of P[5]a to HSL enables calculation of the affinity.

The test system of assay [4] is Pseudomonas aeruginosa 2798 (ATCC 2798). Kind of assay: Resistance profile of strain (Table 3). The conditions noted are these: strain 2798 (ATCC 2798). It is filed as cell-based. The text has this: (§1) The effect of P[5]a on the penetration and efficacy of coadministered antibiotics Amikacin (a), Cefepime (b), Ceftazidime (c) and Meropenem (d) in MDR resistant clinical isolates were studied.

The subject of assay [5] is Pseudomonas aeruginosa 5542. Kind of assay: Resistance profile of strain (Table 3). It is filed as cell-based. The settings on record: strain 5542 P. aeruginosa.
Description: as §1

Assay [6] has as its system Pseudomonas aeruginosa 5550. Kind of assay: Resistance profile of strain (Table 3). It is filed as cell-based. The conditions noted are these: strain 5550.
Description: as §1

In assay [7] the test system is Pseudomonas aeruginosa 5832. Kind of assay: Resistance profile of strain (Table 3). It is filed as cell-based. The settings on record: strain 5832.
Description: as §1

Assay [8] relates to Pseudomonas aeruginosa 5834. The assay is described as follows: Resistance profile of strain (Table 3). The settings on record: strain 5834. Format: cell-based.
Description: as §1

Assay [9] has as its system Pseudomonas aeruginosa 5827. Kind of assay: Resistance profile of strain (Table 3). It is filed as cell-based. The conditions noted are these: strain 5827.

Entries after “also recorded” stand apart in the source; their conditions may differ.

Regarding `NC[C@H]1O[C@H](O[C@H]2[C@H](O)[C@@H](O[C@H]3O[C@H](CO)[C@@H](O)[C@H](N)[C@H]3O)[C@H](N)C[C@@H]2N)[C@H](N)C[C@@H]1O` [tobramycin], the “development of resistance by the pathogen to the respective antibiotic” value (“development of resistance” below) in the assay on P. aeruginosa PAO1 was “greatly slowed”. The “Antibiotic resistance (category)” value in assay [1] was “Resistant to Amikacin, Amoxicillin-clavulanate, Ampicillin,”; in assay [2] it was “resistant”.

As for `Cc1cc(NS(=O)(=O)c2ccc(N)cc2)no1` [Sulfamethoxazole], the “Antibiotic resistance (category)” value in assay [1] was “Resistant to Amikacin, Amoxicillin-clavulanate, Ampicillin,”.

As to `CCCCCCCCCCCC(O)CC(=O)N[C@@H]1CCOC1=O` (stereo partly shown) [3-OH—C14 HSL], the “displacement of dye from P[5]a cavity (binding affinity)” value (shortened to “displacement of dye from P[5]a cavity”) in [3] is “high binding affinity; also recorded: strong displacement”.

On to `C[C@@H](O)[C@H]1C(=O)N2C(C(=O)O)=C(S[C@@H]3CN[C@H](C(=O)N(C)C)C3)[C@H](C)[C@H]12` [meropenem, Meropenem], for which the “development of resistance” value with P. aeruginosa PAO1 is “greatly slowed”. Further, the “Antibiotic resistance (category)” value is on record as “Resistant to Amikacin, Amoxicillin-clavulanate, Ampicillin,” in assay [1]; “Aztreonam & Cefepime, Resistant to Ceftazidime, Cirpofloxacin,” in assay [4]; “resistant” in assay [5]; “resistant” in [6]; “resistant” in assay [7]; “resistant” in [8]. Moreover, the “Antibiotic resistance (category)” value in [9] and in assay [2] was “resistant” in each case. Also, the “Antibiotic resistance (value given with the category, MIC)” value in assay [5] was 8 µg; in assay [6] it was 8 µg; in assay [7], 8 µg; in assay [8], “cefepime 64 ug, ceftazidime 64 ug and meropenem 64 ug”; in assay [9], 16 µg; in assay [2], 8 µg.

`CO/N=C(\C(=O)N[C@@H]1C(=O)N2C(C(=O)O)=C(COC(N)=O)CS[C@H]12)c1ccco1` [cefurixome]: the “Antibiotic resistance (category)” value in [2] is on record as “resistant”.

Take Amoxicillin-clavulanate: the “Antibiotic resistance (category)” value in [1] is “Resistant to Amikacin, Amoxicillin-clavulanate, Ampicillin,”.

Turning to `CN(C)c1cc(NC(=O)CNC(C)(C)C)c(O)c2c1C[C@H]1C[C@H]3[C@H](N(C)C)C(O)=C(C(N)=O)C(=O)[C@@]3(O)C(O)=C1C2=O` [Tigecycline], the “Antibiotic resistance (category)” value in [1] is on record as “Resistant to Amikacin, Amoxicillin-clavulanate, Ampicillin,”.

As to `CCCC(=O)CC(=O)N[C@H]1CCOC1=O` [3-Oxo-C6], in [3], the “displacement of dye from P[5]a cavity” value is on record as “Poor displacement”.

On to Colistin, for which the “Antibiotic resistance (category)” value in [4] is reported as “Susceptible”.

With `CCCCCC(=O)CC(=O)N[C@H]1CCOC1=O` [3-Oxo-C8 HSL], in assay [3], the “displacement of dye from P[5]a cavity” value is recorded as “Medium displacement”.

As for `CC1(C)S[C@@H]2[C@H](NC(=O)[C@H](N)c3ccccc3)C(=O)N2[C@H]1C(=O)O` [Ampicillin], in assay [1], the “Antibiotic resistance (category)” value was “Resistant to Amikacin, Amoxicillin-clavulanate, Ampicillin,”.

With `C[C@@H](O)[C@H]1C(=O)N2C(C(=O)O)=C(S[C@@H]3CN[C@H](CNS(N)(=O)=O)C3)[C@H](C)[C@H]12` [Doripenem, doripenem], the “Antibiotic resistance (category)” value in assay [4] is “Aztreonam & Cefepime, Resistant to Ceftazidime, Cirpofloxacin,”.

Take `NCC[C@H](O)C(=O)N[C@@H]1C[C@H](N)[C@@H](O[C@H]2O[C@H](CN)[C@@H](O)[C@H](O)[C@H]2O)[C@H](O)[C@H]1O[C@H]1O[C@H](CO)[C@@H](O)[C@H](N)[C@H]1O` [amikacin, Amikacin]: the “Antibiotic resistance (category)” value is “Resistant to Amikacin, Amoxicillin-clavulanate, Ampicillin,” in assay [1]; “Susceptible” in assay [4]; “intermediate susceptible” in assay [5]; “Intermediate susceptible” in assay [6]; “Intermediate susceptible” in [7]; “intermediate susceptible” in [8]. The figures for the “Antibiotic resistance (category)” value in [9] and in assay [2] were “Intermediate susceptible” and “Susceptible”, respectively. Moreover, the “Antibiotic resistance (value given with the category, MIC)” value worked out at 16 µg in assay [5]; 32 µg in [6]; 16 µg in assay [7]; 16 µg in assay [8]; 32 µg in [9]; 8 µg in [2].

Regarding `CCCC(=O)N[C@H]1CCOC1=O` [C4], the “displacement of dye from P[5]a cavity” value in [3] is on record as “Poor displacement”.

For the molecule `CC[C@H]1OC(=O)[C@H](C)[C@@H](O[C@H]2C[C@@](C)(OC)[C@@H](O)[C@H](C)O2)[C@H](C)[C@@H](O[C@@H]2O[C@H](C)C[C@H](N(C)C)[C@H]2O)[C@](C)(O)C[C@@H](C)CN(C)[C@H](C)[C@@H](O)[C@]1(C)O` [Azithromycin, azithromycin], the “Antibiotic resistance (category)” value in [1] was “Resistant to Amikacin, Amoxicillin-clavulanate, Ampicillin,”.

For `CC1=C(C(=O)O)N2C(=O)[C@@H](NC(=O)[C@H](N)c3ccccc3)[C@H]2SC1` [Cefalexin], in [1], the “Antibiotic resistance (category)” value is listed as “Resistant to Amikacin, Amoxicillin-clavulanate, Ampicillin,”.

`C[C@@H](O)[C@H]1C(=O)N2C(C(=O)O)=C(S[C@@H]3CN[C@H](C(=O)Nc4cccc(C(=O)O)c4)C3)[C@H](C)[C@H]12` [Ertapenem, ertapenem]: the “Antibiotic resistance (category)” value in assay [1] was “Resistant to Amikacin, Amoxicillin-clavulanate, Ampicillin,”.

Consider Piperacillin-tazobactam, for which the “Antibiotic resistance (category)” value in assay [1] is “Resistant to Amikacin, Amoxicillin-clavulanate, Ampicillin,”; in assay [4] it was “Aztreonam & Cefepime, Resistant to Ceftazidime, Cirpofloxacin,”; in [2], “resistant”.

Consider `C[C@H]1[C@H](NC(=O)/C(=N\OC(C)(C)C(=O)O)c2csc(N)n2)C(=O)N1S(=O)(=O)O` [aztreonam], for which the “development of resistance” value in the assay with P. aeruginosa PAO1 was “greatly slowed”. Also, the “Antibiotic resistance (category)” value in [4] is “Intermediate susceptible”.

On to `CCCCCCCCCC(=O)CC(=O)NC1CCOC1=O` (stereo not shown) [3-Oxo-C12 HSL], for which the “displacement of dye from P[5]a cavity” value in assay [3] was “high binding affinity; also recorded: strong displacement”.

Values taken from patent publication US20230145342A1, “COMBINATORY TREATMENT” (AALTO UNIVERSITY FOUNDATION SR, priority 2020, published 2023).
